Data set [1] concerns the target cross-linked microtubules from bovine brain. Briefly: Affinity for cross-linked microtubules by fluorescence enhancement. To be noted: GAB buffer (pH 6.5); equilibrium binding curves; excitation 405 nm; read-out: apparent Kd. Here is the method:
PB was excited at 405 nm and emitted photons were collected at and above 450 nm.
Experiments were conducted to obtain the measured affinities of Compounds 1-3 for cross-linked microtubules from bovine brain using a fluorescence enhancement method (FIG. 2). […] PB was excited at 405 nm and emitted photons were collected at and above 450 nm.

Data set [2] deals with HeLa cervical carcinoma cells. Briefly: Cytotoxicity, cellular viability by flow cytometry, HeLa. The note with it: for relative toxicity (cellular viability versus concentration) / IC50: HeLa cells; for relative toxicity (cellular viability versus concentration): FIG. 9; for IC50: 48 h. As to the method:
The cytotoxicity of the taxane PB fluorophores towards HeLa cervical carcinoma cells (FIGS. 4A and 4B) was evaluated. These cell lines were treated for 48 h, cellular viability was analyzed by flow cytometry, and paclitaxel was used as a positive control.
The IC50s were also determined.
For orientation: Flow cytometry measures light scatter and fluorescence of single cells or particles in a stream.

The test system of data set [3] is HCT-15 cells. Briefly: Cytotoxicity, cellular viability by flow cytometry, HCT-15. It counts as cell-based. The note with it: for IC50: Homo sapiens, HCT-15, 48 h, 48 h.
The subject of data set [4] is HeLa cells. Briefly: Subcellular distribution and colocalization by confocal microscopy in living HeLa cells. The class given is cell-based. To be noted: for subcellular distribution / colocalization: confocal microscopy, 1 h; for binding to microtubules in cells: HeLa cells transfected with mCherry-tubulin. As to the method: To examine the subcellular distribution of Compound 1, HeLa cells were imaged by confocal laser scanning microscopy (FIGS. 5A, 5B, and 5C). […] The distinct spectral profiles of PB and OG were used to further examine colocalization of Compound 1 and Flutax-2® (FIG. 5C).
The experiment was conducted by 1 hour incubation with HeLa cells, followed by a wash and then imaging using a 25% laser power with excitation at 405 nm and emission at 425-500 nm.
The studies compared the potency as an endoplasmic reticulum probe with commercial ER probe ER Tracker Blue-White DPX. […] Panels A and B used 1 nM of the compounds, Panels A1 and B1 used 10 nM of the compounds, Panels A2 and B2 used 100 nM of the compounds, and Panels A3 and B3 used 1 μM of the compounds.
As such, Compound 2 (PB-β-Ala-Taxol) was compared to iPr-Rhodol-β-Ala-Taxol with HeLa cells transfected with mCherry-tubulin.

Data set [5] deals with HeLa, Ramos, Raji, HL-60, and Jurkat cell lines. Briefly: Uptake into different cell lines by flow cytometry. The class given is cell-based. The note with it: 1 μM, 1 h, 200,000 cells/200 μL; verapamil 0, 25, 100 μM. As to the method:
The uptake of Compound 1 (PB-Gly-Taxol, at 1 μM, 1 h, 200,000 cells/200 μL) by different cell lines was studied and quantified by using flow cytometry.

In data set [6] the target is P-gp in HCT-15 cells (Homo sapiens, UniProt P08183). Nature of the data set: P-gp efflux: cellular fluorescence with or without verapamil by flow cytometry, HCT-15. To be noted: probe 1 μM. Here is the method:
Studies were conducted to investigate the efflux of Compound 1 in HCT-15 cells that express high levels of P-gp. Compound 1 was compared with rhodamine 123 (Rho123), a common P-gp substrate that accumulates in mitochondria.

The target of data set [7] is P-gp in HeLa cells (Homo sapiens, UniProt P08183). Nature of the data set: P-gp efflux: cellular fluorescence with or without verapamil by flow cytometry, HeLa. The note with it: probe 1 μM.
Sequence of P-gp in HeLa cells (P08183 whole entry): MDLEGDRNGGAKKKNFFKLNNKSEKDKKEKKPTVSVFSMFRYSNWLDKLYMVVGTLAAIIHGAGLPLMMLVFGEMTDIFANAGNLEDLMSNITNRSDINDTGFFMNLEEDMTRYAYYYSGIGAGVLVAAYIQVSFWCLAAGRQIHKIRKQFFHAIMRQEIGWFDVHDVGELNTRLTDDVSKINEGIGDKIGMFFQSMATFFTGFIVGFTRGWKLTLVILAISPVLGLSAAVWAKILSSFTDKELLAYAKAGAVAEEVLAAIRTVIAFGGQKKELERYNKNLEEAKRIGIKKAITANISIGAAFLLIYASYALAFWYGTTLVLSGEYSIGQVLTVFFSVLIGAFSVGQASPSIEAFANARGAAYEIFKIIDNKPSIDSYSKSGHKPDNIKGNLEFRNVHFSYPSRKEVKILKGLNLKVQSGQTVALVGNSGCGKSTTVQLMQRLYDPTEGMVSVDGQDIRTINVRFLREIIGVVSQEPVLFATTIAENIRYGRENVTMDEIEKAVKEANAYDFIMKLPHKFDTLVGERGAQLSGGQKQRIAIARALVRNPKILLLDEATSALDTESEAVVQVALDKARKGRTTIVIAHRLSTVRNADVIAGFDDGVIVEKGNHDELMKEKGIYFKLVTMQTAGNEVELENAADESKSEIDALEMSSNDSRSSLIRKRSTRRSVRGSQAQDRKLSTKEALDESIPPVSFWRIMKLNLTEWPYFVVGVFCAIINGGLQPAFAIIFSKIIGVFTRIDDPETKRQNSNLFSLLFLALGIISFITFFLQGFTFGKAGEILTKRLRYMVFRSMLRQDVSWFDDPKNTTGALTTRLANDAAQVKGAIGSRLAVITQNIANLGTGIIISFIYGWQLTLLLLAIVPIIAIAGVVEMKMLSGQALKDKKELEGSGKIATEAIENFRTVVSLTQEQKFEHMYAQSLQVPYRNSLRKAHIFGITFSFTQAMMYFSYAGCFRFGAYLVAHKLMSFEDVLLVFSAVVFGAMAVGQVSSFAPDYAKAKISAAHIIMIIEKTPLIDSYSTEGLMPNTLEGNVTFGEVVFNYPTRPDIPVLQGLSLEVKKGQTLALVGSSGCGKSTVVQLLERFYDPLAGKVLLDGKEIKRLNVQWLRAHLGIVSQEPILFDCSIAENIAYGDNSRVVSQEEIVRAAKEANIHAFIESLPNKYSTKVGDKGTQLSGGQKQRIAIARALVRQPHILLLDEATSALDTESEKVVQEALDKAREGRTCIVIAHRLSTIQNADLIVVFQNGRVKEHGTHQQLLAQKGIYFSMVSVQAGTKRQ

“Also recorded” adds a separate entry of the source.

Sequence of P-gp in HCT-15 cells (P08183 whole entry): as above

Turning to `CC(=O)OC1C(=O)C2(C)C(OC(=O)CNC(=O)c3cc4cc(F)c(O)c(F)c4oc3=O)CC3OCC3(OC(C)=O)C2C(OC(=O)c2ccccc2)C2(O)CC(OC(=O)C(O)C(NC(=O)c3ccccc3)c3ccccc3)C(C)=C1C2(C)C` (stereo not shown) [Compound 1, PB-Gly-Taxol], the Kd in data set [1] worked out at 0.034 ± 0.006 µM. For the same compound, the “relative toxicity (cellular viability versus concentration)” value in data set [2] is recorded as “less toxic than PB-NHMe-Gly-Taxol (Compound 21); also recorded: less toxic than paclitaxel”. The IC50 (as a rule, the concentration at which inhibition is half-maximal) amounted to 0.12 µM in data set [2] (Homo sapiens, HeLa, absence of verapamil); 0.06 µM in data set [2] (Homo sapiens, HeLa, presence of verapamil (25 μM)); 0.09 µM in data set [3] (with verapamil (25 μM)); 3.7 µM in data set [3] (without verapamil). Further, the “enhancement of toxicity by verapamil” value in data set [3] (verapamil 25 μM versus none) came out at 41 fold. The “subcellular distribution / colocalization” value in data set [4] (living HeLa cells) is recorded as “bound microtubules with very high specificity”. Moreover, the “effect of verapamil on uptake” value in data set [5] is on record as “the inclusion of verapamil increased the uptake”.
For `CC(=O)OC1C(=O)C2(C)C(OC(=O)CCNC(=O)c3cc4cc(F)c(O)c(F)c4oc3=O)CC3OCC3(OC(C)=O)C2C(OC(=O)c2ccccc2)C2(O)CC(OC(=O)C(O)C(NC(=O)c3ccccc3)c3ccccc3)C(C)=C1C2(C)C` (stereo not drawn) [Compound 2, PB-β-Ala-Taxol], the Kd in data set [1] was found to be 0.063 ± 0.008 µM. Also, the “binding to microtubules in cells” value in data set [4] is given as “can bind to microtubules better than when paclitaxel is coupled to a different fluorophore”.
In the case of `CC(=O)OC1C(=O)C2(C)C(OC(=O)CCCNC(=O)c3cc4cc(F)c(O)c(F)c4oc3=O)CC3OCC3(OC(C)=O)C2C(OC(=O)c2ccccc2)C2(O)CC(OC(=O)C(O)C(NC(=O)c3ccccc3)c3ccccc3)C(C)=C1C2(C)C` (stereo not shown) [Compound 3, PB-GABA-Taxol], the Kd in data set [1] was 0.265 ± 0.054 µM.
For the compound `CC(=O)O[C@H]1C(=O)[C@@]2(C)C([C@H](OC(=O)c3ccccc3)[C@]3(O)C[C@H](OC(O)[C@H](O)[C@@H](NC(=O)c4ccccc4)c4ccccc4)C(C)=C1C3(C)C)[C@]1(OC(C)=O)CO[C@@H]1C[C@@H]2OC(=O)CCNC(=O)c1ccc(-c2c3cc(F)c(=O)cc-3oc3cc(NC(C)C)c(F)cc23)c(C)c1` (stereo partly drawn) [iPr-Rhodol-β-Ala-Taxol, reference compound], the “cytotoxicity (in words)” value in data set [2] is “without engendering substantial cytotoxicity”. Besides, the “binding to microtubules in cells” value in data set [4] was “does not bind extensively to microtubules”. Moreover, the “subcellular distribution / colocalization” value in data set [4] (living HeLa cells) is recorded as “appears to accumulate predominantly in the endoplasmic reticulum”.
As for Flutax-2® [reference compound], the IC50 in data set [2] (presence of verapamil (25 μM)) was found to be 1.31 µM. For the same compound, the “subcellular distribution / colocalization” value in data set [4] (living HeLa cells) is on record as “punctate fluorescence that did not co-localize with Compound 1 on microtubules”.
Take PB-NH2-Gly-Taxol [Compound 22]: in data set [4] (living HeLa cells), the “subcellular distribution / colocalization” value was “accumulate in the endoplasmic reticulum”.
PB-NHMe-Gly-Taxol [Compound 21]: in data set [2], the “relative toxicity (cellular viability versus concentration)” value is given as “less toxic than paclitaxel”. Further, in data set [4] (living HeLa cells, 1 nM to 1 μM, versus ER Tracker Blue-White DPX), the “potency as endoplasmic reticulum probe” value was “more potent as an endothelium reticulum probe compared to ER Tracker Blue-White DPX”. For the same compound, the “subcellular distribution / colocalization” value in data set [4] (living HeLa cells) is given as “does not appear to colocalize with Flutax-2® on microtubules”; in data set [4] (living HeLa cells, listed as PB-NHMe-Gly-Taxol) it was “accumulate in the endoplasmic reticulum; also recorded: colocalizes with the red fluorescent endoplasmic reticulum probe HRA”.
For the compound rhodamine 123 [Rho123], the “increase of cellular fluorescence in presence of verapamil” value in data set [6] (verapamil 25 μM) and in data set [6] (verapamil 100 μM) was 3 fold in each case. For the same compound, in data set [7], the “detection of low levels of P-gp activity” value is given as “undetectable”.

These data come from US10399964B2, “Coumarin-linked taxanes for detection and circumvention of cellular efflux” (The University of Kansas, priority 2017, dated 2019).
